Results on 1 molecule are retold here after patent US11607417B2, “Uses of celastrol in preventing and/or treating cholestatic liver disease and liver fibrosis” (KUNMING INSTITUTE OF BOTANY, THE CHINESE ACADEMY OF SCIENCES, priority 2017, dated 2023).

In assay [1] the test system is ANIT-induced cholestatic liver injury in FXR knockout mice. Briefly: Effect of FXR on celastrol activity in ANIT model (Example 5). The class given is in vivo, FXR knockout mice (C57BL/6J as background). From the text: The same experimental method of Example 1 was used, wherein the experimental animals were FXR knockout mice (C57BL/6J as background), and the FXR knockout mice were presented by Frank J. Gonzalez, a researcher of the Cancer Institute of National Institutes of Health, USA.

Assay [2] deals with TAA-induced cholestatic liver injury in FXR knockout mice. Briefly: Effect of FXR on celastrol activity in TAA model (Example 6). The class given is in vivo, FXR knockout mice (C57BL/6J as background). From the text: The same experimental method of Example 2 was used, wherein the experimental animals were FXR knockout mice (C57BL/6J as background), and the FXR knockout mice were presented by Frank J. Gonzalez, a researcher of the Cancer Institute of National Institutes of Health, USA.

Assay [3] relates to TAA-induced liver fibrosis. Nature of the assay: TAA-induced liver fibrosis in mice (Example 7). The note with it: three times per week from second week, TAA 6 weeks. The format is in vivo, C57BL/6 mice. The procedure:
A total of 30 male C57BL/6 mice were divided into three groups: blank group (n=10); TAA liver fibrosis group (n=10); treatment group (n=10).
Celastrol was dissolved in a solvent to obtain a celastrol solution at a concentration of 2 mg/mL, wherein the solvent consisted of 1% DMSO, 2% Tween 80, and 97% water (v:v:v); for intragastrical administration, the dosage of celastrol was 10 mg/kg/time, three times per week, and the administration was absent in the first week. TAA was dissolved in 0.9% NaCl solution to prepare a NaCl solution of TAA at a concentration of […], and the dosage for intraperitoneal administration was 100 mg/kg/time in the first week and 160 mg/kg/time in the second to sixth week, three times per week.
The model group and the treatment group were administrated with TAA three times per week, and administered every other day. The dosage of TAA was 100 mg/kg each time during the first week. From the second week onwards, the dosage of TAA administered to the model group and the treatment group was changed to 160 mg/kg each time. The blank group was given an equal dosage of NaCl solution.
The treatment group was administrated with celastrol from the second week, in which celastrol at a dosage of 10 mg/kg was administered 1 hour after administration with TAA. The blank group and the model group were administrated with an equal dosage of solvent (1% DMSO, 2% Tween 80, and 97% water (v: v: v)).
Six weeks later, mice were sacrificed by CO2 anesthesia, and mouse plasma samples and liver samples were collected. The eyeballs of the mice were taken for blood collection. The plasma samples were placed on ice for 1-2 hours, centrifuged at 4000 g for 5 minutes at 4° C., and the supernatants of plasma samples were taken to determine the plasma biochemical indicators, the levels of ALT, AST, and ALP.
Part of the collected mouse liver tissue was fixed overnight in formalin, and tissue sections were stained with hematoxylin and eosin (H&E).

The test system of assay [4] is ANIT-induced cholestatic liver injury under SIRT1 inhibition. Briefly: Effect of SIRT1 inhibition (EX527) on celastrol activity in ANIT model (Example 3). The class given is in vivo, C57BL/6 mice. The procedure:
A total of 24 male C57BL/6 mice were divided into four groups: blank group (n=6); model group (n=6); treatment group (n=6); and EX527 group (n=6).
Celastrol was dissolved in a solvent to obtain a celastrol solution at a concentration of 2 mg/mL, wherein the solvent consisted of 1% DMSO, 2% Tween 80, and 97% water (v:v:v). For intragastrical administration, the dosage of celastrol was 10 mg/kg·d. ANIT was dissolved in corn oil to obtain a corn oil solution of ANIT at a concentration of 15 mg/mL, and the dosage of ANIT for intragastrical administration was 75 mg/kg. EX527 was dissolved in corn oil to obtain a corn oil solution of EX527 at a concentration of 2 mg/mL, and the dosage of EX527 for intraperitoneal injection was 10 mg/kg·d.
The EX527 group was simultaneously administrated with the celastrol solution and the EX527 corn oil solution for 5 consecutive days. The treatment group was administrated with the celastrol solution and an equal dosage of corn oil for 5 consecutive days. At the same time, the blank group and the model group were administrated with equal dosages of solvent (1% DMSO, 2% Tween 80 and 97% water (v:v:v)) and corn oil, and the solvent was administrated for 5 consecutive days.
On the 3rd day of administration, ANIT model was established. 4 Hours after administration, the mice in the model group, the treatment group and the EX527 group were respectively intraperitoneally injected with the ANIT corn oil solution at a dosage of 75 mg/kg for single administration to induce cholestatic liver injury, and the blank group was fed with an equal dosage of corn oil. After the model was established on the 3rd day of administration, the treatment group was continuously administrated with celastrol, the EX527 group was continuously administrated with celastrol and EX527, and the blank group and the model group were continuously administrated with the same dosage of solvent. 48 Hours after administration with ANIT, the mice were sacrificed by CO2 anesthesia, and mouse liver samples and plasma samples were taken. The eyeballs of the mice were taken for blood collection. The plasma samples were placed on ice for 1-2 hours, centrifuged at 4000 g for 5 minutes at 4° C., and the supernatants of the plasma samples were taken to determine plasma biochemical indicators, the levels of ALT, AST and ALP.
At the same time, plasma samples were prepared: 10 μL of plasma sample was taken, mixed well with 190 μL of 67% acetonitrile (containing 5 μM internal standard chlorpropamide), centrifuged at 18000 g for 20 minutes at 4° C., and the supernatant was taken for sample injection. The liquid chromatography conditions were as follows: the injection volume was 5 μL; the temperature of column was 45° C.; the flow rate of mobile phase was 0.3 mL/min; the gradient elution was that acetonitrile concentration changed from 2% to 98% during 16 minutes of operation, wherein the mobile phase (water/acetonitrile solution) contained 0.01% formic acid. The elution procedure was as follows: during 0-12th minute, the acetonitrile concentration changed from 2% to 98% at a constant rate; during 12-14th minute, the acetonitrile concentration was maintained at 98%; during 14-14.1th minute, the acetonitrile concentration changed from 98% to 2%; during 14.1-16th minute, the acetonitrile concentration was maintained at 2%. Mass spectrometry conditions were as follows: the temperature of dry gas was 350° C., the pressure of nebulizer was 35 psi, and the voltage of capillary was 3.5 kV.
Part of the collected mouse liver tissue was fixed overnight in formalin and tissue sections were stained with hematoxylin and eosin (H&E).

[5] abbreviates: method of Example 1, ANIT model, FIG. 5A.
Where [6] appears, read: celastrol 10 mg/kg/time, P<0.05, FIG. 7D.
The mark [7] stands for this setting: treatment group: celastrol 10 mg/kg·d, P<0.05, FIG. 3E.

As for `CC1=C(O)C(=O)C=C2C1=CC=C1[C@@]2(C)CC[C@@]2(C)[C@@H]3C[C@](C)(C(=O)O)CC[C@]3(C)CC[C@]12C` [celastrol, Celastrol], in assay [1] (CA, DCA, TβMCA/TαMCA, TCA, THDCA/TUDCA, method of Example 1, FIG. 5B), the “Levels of bile acids in plasma vs ANIT model group” value is “no significant decrease”. Further, the “ALP level in plasma vs model group” value in assay [1] (setting [5]) is reported as “no significant decrease”; in assay [4] (setting [7]), “lower”. Besides, the “ALT level in plasma vs model group” value was “no significant decrease” in assay [1] (setting [5]), “significantly lower” in assay [3] (setting [6]) and “lower” in assay [4] (setting [7]). In addition, the “Levels of bile acids in plasma vs model group” value in assay [2] (co-MCA, DCA, TCA, THDCA/TUDCA, TCDCA, method of Example 2, FIG. 6E) is recorded as “no significant decrease”; in assay [4] (CA, DCA, TβMCA/TαMCA, TCA, THDCA/TUDCA, treatment group: celastrol 10 mg/kg·d, FIG. 3F) it was “significantly lower”. In assay [2] (method of Example 2, TAA model, FIG. 6C), the “H&E staining of liver tissue” value was “a severe necrosis of liver cells also occurred”. Further, the “AST level in plasma vs model group” value in assay [2] (method of Example 2, TAA model, FIG. 6D) was “no significant decrease”; in assay [3] (setting [6]), “significantly lower”; in assay [4] (setting [7]), “lower”. In addition, the “H&E staining: liver tissue damage and liver morphology” value in assay [3] (celastrol 10 mg/kg/time intragastric, n=10, FIG. 7C) is “reduced and the liver morphology was also significantly recovered”. In addition, the “H&E staining of mouse liver tissue” value in assay [4] (treatment group: celastrol 10 mg/kg·d intragastric + corn oil, FIG. 3C) is listed as “no obvious damage”.
